For experiment [1], the target named is T1, CDK2/Cyclin E1 (Homo sapiens, UniProt P24941). Nature of the experiment: HotSpot kinase inhibition assay (radiometric, Histone H1 substrate). To be noted: 10 μM ATP, read-out: Kinase Assay (CDK2/CCNE): IC50. The experiment is classed as biochemical. Here is the method:
Inhibition of CDK2/CCNE1 activities in the presence of compounds of the present disclosure was evaluated using the HotSpot™ assay (proprietary to Reaction Biology Corporation). In the assay, CDK2/Cyclin E1 (Signalchem C29-18G) catalyzed the transfer of radioactive phosphate to amino acid residues of Histone H1 (Sigma, H5505), which are detected radiometrically.
Reactions contained 20 mM HEPES pH 7.5, 10 mM MgCl2, 1 mM EGTA, 2 mM DTT, 0.02% Brij35, 0.02 mg/mL BSA, 0.1 mM Na3VO4, 1% DMSO, 1.5 nM CDK2/Cyclin E1, 10 μM ATP, and 20 μM Histone H1.
CDK2/Cyclin E1 and Histone H1 were mixed in reaction buffer. To this mixture dose titrations of inhibitors in 100% DMSO were added in by acoustic transfer. The compound mixtures were incubated for 20 minutes, then the kinase reactions were initiated by the addition of a mixture of ATP and ^33P ATP for final concentrations of 10 μM total ATP, 20 μM Histone H1, and 1.5 nM CDK2/Cyclin E1. The reactions were carried out for 120 minutes, then spotted on a P81 ion exchange filter paper, and extensively washed with 0.75% phosphoric acid. The resulting radioactive counts were normalized to yield % activity, plotted against compound concentration, and fit to a four-parameter equation to determine the IC50 for each compound.

Experiment [2] concerns the target T1, CDK2/Cyclin E1. Nature of the experiment: CDK2/Cyclin E1 Caliper LabChip EZ Reader mobility shift assay. The experiment is classed as biochemical. The settings on record: read-out: Caliper Assay (CDK2/CCNE1): IC50. Details: purchased Eurofins 14-475. Summed up:
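Mobility-shift kinase assay: compound titrations preincubated 30 min with enzyme and ATP, reaction started with 5-FAM-QSPKKG-CONH2 peptide. Final 2.5 nM CDK2/Cyclin E1, 100 μM ATP, 1.5 μM peptide, HEPES pH 7.5; stopped with EDTA after 100 min. IC50 from four-parameter fit of normalized conversion ratio.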

Regarding `CNC(=O)[C@@H](NC(=O)C1CN(C(=O)c2cnn(Cc3ccccc3)c2)CC12CN(C(=O)C1CC1(C)C)C2)[C@@H](C)OCC1CCCCC1` (mixture of isomers) [I-12], at CDK2/Cyclin E1 [1], the IC50 is no more than 1 µM.
Turning to `CNC(=O)[C@H](COCc1ccccc1)NC(=O)C1CN(C(=O)c2cnn(Cc3ccccc3)c2)CC12CN(C(=O)C1CC1(C)C)C2` (some centres unmarked) [I-1], the IC50 at CDK2/Cyclin E1 [1] was 1 to 10 µM.
Same read-out and setting: then `CNC(=O)[C@@H](NC(=O)C1CN(C(=O)c2cnn(Cc3ccccc3)c2)CC12CN(C(=O)C1CC1(C)C)C2)[C@@H](C)OC` (stereo partly drawn) [I-2, 6-(1-benzyl-1H-pyrazole-4-carbonyl)-2-(2,2-dimethylcyclopropane-1-carbonyl)-N-((2S,3R)-3-methoxy-1-(methylamino)-1-oxobutan-2-yl)-2,6-diazaspiro[3.4]octane-8-carboxamide], with 10 to 100 µM.
`CNC(=O)[C@@H](NC(=O)[C@@H]1CN(C(=O)c2cnn(Cc3ccccc3)c2)CC12CN(C(=O)OC(C)(C)C)C2)[C@@H](C)OCc1ccccc1` [I-3A, tert-butyl (S)-6-(1-benzyl-1H-pyrazole-4-carbonyl)-8-(((2S,3R)-3-(benzyloxy)-1-(methylamino)-1-oxobutan-2-yl)carbamoyl)-2,6-diazaspiro[3.4]octane-2-carboxylate]: the IC50 was no more than 1 µM at CDK2/Cyclin E1 [1] and 0.1 to 1 µM on CDK2/Cyclin E1 [2].
Turning to `CNC(=O)[C@@H](NC(=O)[C@@H]1CN(C(=O)c2cnn(Cc3ccccc3)c2)CC12CN(C(=O)C1CC(C)(C)C1)C2)[C@@H](C)OCc1ccccc1` [I-4A], on CDK2/Cyclin E1 [1], the IC50 was in the range of 10 to 100 µM.
As to `CNC(=O)[C@@H](NC(=O)[C@H]1CN(C(=O)c2cnn(Cc3ccccc3)c2)CC12CN(C(=O)C1CC(C)(C)C1)C2)[C@@H](C)OCc1ccccc1` [I-4B], the IC50 at CDK2/Cyclin E1 [1] was greater than 100 µM.
On the same count and under the same terms, to `CNC(=O)[C@@H](NC(=O)[C@@H]1CN(C(=O)c2cn[nH]c2)CC12CN(C(=O)C1CC1(C)C)C2)[C@@H](C)OCc1ccccc1` (some centres unmarked) [I-5A] belongs no more than 1 µM; to `CNC(=O)[C@@H](NC(=O)[C@H]1CN(C(=O)c2cn[nH]c2)CC12CN(C(=O)C1CC1(C)C)C2)[C@@H](C)OCc1ccccc1` (some centres unmarked) [I-5B], 1 to 10 µM.
On the same count and under the same terms, then `CNC(=O)[C@@H](NC(=O)C1CN(C(=O)c2cnn(Cc3ccccc3)c2)CC12CN(C(=O)C1CC1(C)C)C2)[C@@H](C)OCc1cccc(C#N)c1` (some centres unmarked) [I-6], with greater than 100 µM; and `C[C@H](CNC(=O)C1CN(C(=O)c2cnn(Cc3ccccc3)c2)CC12CN(C(=O)C1CC1(C)C)C2)OCc1ccccc1` (some centres unmarked) [I-7], with no more than 1 µM; and `CNC(=O)[C@@H](NC(=O)C1CN(C(=O)c2cnn(Cc3ccccc3)c2)CC12CN(C(=O)C1CC1(C)C)C2)[C@@H](C)O` (some centres unmarked) [I-88 mixture], with 10 to 100 µM.
Consider `C[C@@H](OCC12CCC(CC1)OC2)[C@H](NC(=O)[C@@H]1CN(C(=O)c2cncs2)CC12CN(C(=O)[C@H]1CC1(C)C)C2)C(=O)N1CCC[C@H](COC(F)F)C1` [I-461], for which, on CDK2/Cyclin E1 [2], the IC50 is no more than 0.01 µM.
Still for that read-out and setting: then `CNC(=O)[C@@H](NC(=O)[C@@H]1CN(C(=O)c2cncs2)CC12CN(C(=O)[C@H]1CC1(C)C)C2)[C@@H](C)OCC1CC2CCC1O2` (some centres unmarked) [I-462], with 0.1 to 1 µM; and `CNC(=O)[C@@H](NC(=O)[C@@H]1CN(C(=O)c2cncs2)CC12CN(C(=O)[C@H]1CC1(C)C)C2)[C@@H](C)OC1C2CC3CC(C2)CC1C3` (some centres unmarked) [I-463], with 0.01 to 0.1 µM.
Same read-out and setting: to `CNC(=O)[C@@H](NC(=O)[C@@H]1CN(C(=O)c2cncs2)CC12CN(C(=O)[C@H]1CC1(C)C)C2)[C@@H](C)OC1CC2CCC1CC2` (some centres unmarked) [I-464] belongs 0.01 to 0.1 µM; to `CNC(=O)[C@@H](NC(=O)[C@@H]1CN(C(=O)c2cncs2)CC12CN(C(=O)[C@H]1CC1(C)C)C2)[C@@H](C)OCC1CC2CCC1C2` (some centres unmarked) [I-465], no more than 0.01 µM.
Same read-out and setting: to `COC[C@H]1CCCN(C(=O)[C@@H](NC(=O)[C@@H]2CN(C(=O)c3cncs3)CC23CN(C(=O)[C@H]2CC2(C)C)C3)[C@@H](C)O[C@@H](C)C2CCCCC2)C1` [I-467] belongs no more than 0.01 µM; to `C[C@@H](OCC1CCC(F)(F)CC1)[C@H](NC(=O)[C@@H]1CN(C(=O)c2cncs2)CC12CN(C(=O)[C@H]1CC1(C)C)C2)C(=O)N1C2CCC1COC2` [I-468], no more than 0.01 µM; to `C[C@@H](OCc1ccc(C(F)(F)F)cc1)[C@H](NC(=O)[C@@H]1CN(C(=O)c2cncs2)CC12CN(C(=O)[C@H]1CC1(C)C)C2)C(=O)N1C2CCC1COC2` [I-470], no more than 0.01 µM.
Regarding `C[C@@H](OCC12CCC(CC1)OC2)[C@H](NC(=O)[C@@H]1CN(C(=O)c2sc(Cl)nc2Cl)CC12CN(C(=O)C(C)(C)C1CC1)C2)C(C)(C)O` [I-471], the IC50 at CDK2/Cyclin E1 [2] was 1 to 10 µM.
On the same count and under the same terms, to `C[C@@H](OCC1CCCCC1)[C@H](NC(=O)[C@@H]1CN(C(=O)c2cnn(Cc3ccccc3)c2)CC12CN(C(=O)[C@H]1CC1(C)C)C2)C(=O)NCC(C)(C)C(=O)O` [I-472] belongs no more than 0.01 µM; to `CCOC(=O)C(C)(C)CNC(=O)[C@@H](NC(=O)[C@@H]1CN(C(=O)c2cnn(Cc3ccccc3)c2)CC12CN(C(=O)[C@H]1CC1(C)C)C2)[C@@H](C)OCC1CCCCC1` [I-473], no more than 0.01 µM; to `C[C@@H](OCC1CCCCC1)[C@H](NC(=O)[C@@H]1CN(C(=O)c2cnn(Cc3ccccc3)c2)CC12CN(C(=O)[C@H]1CC1(C)C)C2)C(=O)NCC1(C(=O)O)CC1` [I-474], no more than 0.01 µM.
On the same count and under the same terms, then `COC(=O)[C@@H](NC(=O)[C@@H]1CN(C(=O)c2cnn(Cc3ccccc3)c2)CC12CN(C(=O)[C@H]1CC1(C)C)C2)[C@@H](C)OCC1CCCCC1` [I-475], with no more than 0.01 µM; and `CNC(=O)[C@@H](NC(=O)[C@@H]1CN(C(=O)c2cnn(Cc3ccc(C(=O)O)cc3)c2)CC12CN(C(=O)[C@H]1CC1(C)C)C2)[C@@H](C)OCc1ccccc1` [I-476], with 1 to 10 µM; and `C[C@@H](OCC1CCCCC1)[C@H](NC(=O)[C@@H]1CN(C(=O)c2cnn(Cc3ccccc3)c2)CC12CN(C(=O)[C@H]1CC1(C)C)C2)C(=O)O` [I-477], with no more than 0.01 µM.
As for `C[C@@H](OCC1CCCCC1)[C@H](NC(=O)[C@@H]1CN(C(=O)c2cnn(Cc3ccccc3)c2)CC12CN(C(=O)[C@H]1CC1(C)C)C2)C(=O)NCCC(=O)OC(C)(C)C` [I-478], the IC50 at CDK2/Cyclin E1 [2] was no more than 0.01 µM.
As to `CCOC(=O)[C@H]1CCCN(C(=O)[C@@H](NC(=O)[C@@H]2CN(C(=O)c3cnn(Cc4ccccc4)c3)CC23CN(C(=O)[C@H]2CC2(C)C)C3)[C@@H](C)OCC2CCCCC2)C1` [I-482], on CDK2/Cyclin E1 [2], the IC50 is no more than 0.01 µM.
The same measure, in the same setting: then `C[C@@H](OCC1CCCCC1)[C@H](NC(=O)[C@@H]1CN(C(=O)c2cnn(Cc3ccccc3)c2)CC12CN(C(=O)[C@H]1CC1(C)C)C2)C(=O)N1CCC[C@H](C(=O)O)C1` [I-483], with no more than 0.01 µM; and `CCOC(=O)[C@@H]1CCCN(C(=O)[C@@H](NC(=O)[C@@H]2CN(C(=O)c3cnn(Cc4ccccc4)c3)CC23CN(C(=O)[C@H]2CC2(C)C)C3)[C@@H](C)OCC2CCCCC2)C1` [I-484], with no more than 0.01 µM; and `CC1(C)C[C@@H]1C(=O)N1CC2(CN(C(=O)c3cncs3)C[C@H]2C(=O)NC(c2cccc(C3CCCCC3)n2)C2CCOC2)C1` (some centres unmarked) [I-493], with 0.01 to 0.1 µM.
For `CC1(C)C[C@@H]1C(=O)N1CC2(CN(C(=O)c3cncs3)C[C@H]2C(=O)NC(c2cccc(C3CCCCC3)n2)P(C)(C)=O)C1` (some centres unmarked) [I-494], at CDK2/Cyclin E1 [2], the IC50 was in the range of 0.1 to 1 µM.
For `CC1(C)C[C@@H]1C(=O)N1CC2(CN(C(=O)c3cncs3)C[C@H]2C(=O)NC(c2cccc(C3CCCCC3)n2)C2CCCO2)C1` (some centres unmarked) [I-495], the IC50 at CDK2/Cyclin E1 [2] is 0.01 to 0.1 µM.
On the same count and under the same terms, to `CC1(C)C[C@@H]1C(=O)N1CC2(CN(C(=O)c3cncs3)C[C@H]2C(=O)NC(c2cccc(C3CCCCC3)n2)C2COCCO2)C1` (some centres unmarked) [I-496] belongs 0.01 to 0.1 µM.
Same read-out and setting: to `CC1(C)C[C@@H]1C(=O)N1CC2(CN(C(=O)c3cncs3)C[C@H]2C(=O)NC(c2cccc(C3CCOCC3)n2)C2CCCO2)C1` (some centres unmarked) [I-497] belongs 1 to 10 µM; to `CNC(=O)[C@@H](NC(=O)C1(C)CN(C(=O)c2cnn(Cc3ccccc3)c2)CC12CN(C(=O)[C@H]1CC1(C)C)C2)[C@@H](C)OCc1ccccc1` (stereo partly drawn) [I-498, 6-(1-benzyl-1H-pyrazole-4-carbonyl)-N-((2S,3R)-3-(benzyloxy)-1-(methylamino)-1-oxobutan-2-yl)-2-((S)-2,2-dimethylcyclopropane-1-carbonyl)-8-methyl-2,6-diazaspiro[3.4]octane-8-carboxamide], 1 to 10 µM.
On the same count and under the same terms, then `CNC(=O)[C@@H](NC(=O)[C@]1(C)CN(C(=O)c2cnn(Cc3ccccc3)c2)CC12CN(C(=O)[C@H]1CC1(C)C)C2)[C@@H](C)OCC1CCCCC1` [I-499A], with 1 to 10 µM.
Regarding `CNC(=O)[C@@H](NC(=O)[C@@]1(C)CN(C(=O)c2cnn(Cc3ccccc3)c2)CC12CN(C(=O)[C@H]1CC1(C)C)C2)[C@@H](C)OCC1CCCCC1` [I-499B], the IC50 on CDK2/Cyclin E1 [2] is greater than 10 µM.
Take `CNC(=O)[C@@H](NC(=O)C1(F)CN(C(=O)c2cnn(Cc3ccccc3)c2)CC12CN(C(=O)[C@H]1CC1(C)C)C2)[C@@H](C)OCc1ccccc1` (some centres unmarked) [I-500]: the IC50 at CDK2/Cyclin E1 [2] fell in the range of 0.1 to 1 µM.
Same read-out and setting: then `CNC(=O)[C@@H](NC(=O)C1(F)CN(C(=O)c2cnn(Cc3ccccc3)c2)CC12CN(C(=O)[C@H]1CC1(C)C)C2)[C@@H](C)OCC1CCCCC1` (some centres unmarked) [I-501], with 0.01 to 0.1 µM.

For the origin of these results see patent US20240174680A1, “CDK2 INHIBITORS AND METHODS OF USING THE SAME” (Cedilla Therapeutics, Inc., priority 2021, published 2024).
